The nature of the data set: recombinant UMI read abundance after kanamycin selection (control-corrected) (log10(CPM+1)); higher = more efficient recombination; extreme values may be limits of the assay; sequences stand for … in AGTGCAGAGAAAATCGGCCAGTTTTCTCTGCCTGCAGTCCGCATGCCGTGGGACCCCTTGGGTTCTAACCTGTTGCCTAGATTTATGCAGCGGACTGCCTTTCTCCCAAAGTGATAAACCGG…AGGTTGGTTTCACT; site = the 11-nt donor. The essentials: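 Sequenced counts of recombinant UMIs were turned into CPM, averaged across replicates and scaled with control-derived factors. The reported figure is log10(CPM+1). Those UMIs, each 12 nt long, tagged donor and donor-binding-loop pairs on a plasmid with a promoterless kanamycin gene, screened as a pool in Escherichia coli with IPTG (0.07 mM) plus kanamycin or without selection.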
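Note: IS621 bridge recombinase in Escherichia coli cells against a fixed T5 target plasmid.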

Regarding “TTAGCTGCATGGACCGGTTTTCCCGGTAATCCGTATTTGAG (site TTAGCTGCTCA)”, the “recombinant UMI read abundance (log10)” value stood at 0.025. As for “TTAGCTGCATGGACCGGTTTTCCCGGTAATCCGTATTTGAG (site TTAGCTGCTCC)”, the “recombinant UMI read abundance (log10)” value amounted to 0.0699. As for “TTAGCTGCATGGACCGGTTTTCCCGGTAATCCGTATTTGAG (site TTAGCTGCTCG)”, the figure is 0.0144; as for “TTAGCTGCATGGACCGGTTTTCCCGGTAATCCGTATTTGAG (site TTAGCTGCTCT)”, 0.839; as for “TTAGCTGCATGGACCGGTTTTCCCGGTAATCCGTATTTGCG (site TTAGCTGCTCA)”, 0.00643. Take “TTAGCTGCATGGACCGGTTTTCCCGGTAATCCGTATTTGCG (site TTAGCTGCTCC)”: the “recombinant UMI read abundance (log10)” value amounted to 0.0194. With “TTAGCTGCATGGACCGGTTTTCCCGGTAATCCGTATTTGCG (site TTAGCTGCTCG)”, the “recombinant UMI read abundance (log10)” value came out at 1.41.

With “TTAGCTGCATGGACCGGTTTTCCCGGTAATCCGTATTTGCG (site TTAGCTGCTCT)”, the “recombinant UMI read abundance (log10)” value came to 0.00813. As to “TTAGCTGCATGGACCGGTTTTCCCGGTAATCCGTATTTGTA (site TTAGCTGCTAA)”, the “recombinant UMI read abundance (log10)” value turned out to be 0.0184.

Take “TTAGCTGCATGGACCGGTTTTCCCGGTAATCCGTATTTGTA (site TTAGCTGCTCA)”: the “recombinant UMI read abundance (log10)” value was determined as 0.026. Take “TTAGCTGCATGGACCGGTTTTCCCGGTAATCCGTATTTGTA (site TTAGCTGCTGA)”: the “recombinant UMI read abundance (log10)” value came out at 0. Take “TTAGCTGCATGGACCGGTTTTCCCGGTAATCCGTATTTGTA (site TTAGCTGCTTA)”: the “recombinant UMI read abundance (log10)” value is 1.35. As for “TTAGCTTCATGGACCGGTTTTCCCGGTAATCCGTATTTGTG (site TTAGCTACTCA)”, the “recombinant UMI read abundance (log10)” value came out at 0.0149. Consider “TTAGCTTCATGGACCGGTTTTCCCGGTAATCCGTATTTGTG (site TTAGCTCCTCA)”, for which the “recombinant UMI read abundance (log10)” value was found to be 0.012.

For “TTAGCTTCATGGACCGGTTTTCCCGGTAATCCGTATTTGTG (site TTAGCTGCTCA)”, the “recombinant UMI read abundance (log10)” value amounted to 0.00609. For “TTAGCTTCATGGACCGGTTTTCCCGGTAATCCGTATTTGTG (site TTAGCTTCTCA)”, the “recombinant UMI read abundance (log10)” value is 0.478.

For the sequence “TTAGGTTCATGGACCGGTTTTCCCGGTAATCCGTATTTGGC (site TTAGGTTCTGC)”, the “recombinant UMI read abundance (log10)” value amounted to 2.53. For “TTAGTATCATGGACCGGTTTTCCCGGTAATCCGTATTTGAG (site CTAGTATCTGT)”, the “recombinant UMI read abundance (log10)” value worked out at 0.

As for “TTAGTATCATGGACCGGTTTTCCCGGTAATCCGTATTTGAG (site TTAGTATCTCT)”, the “recombinant UMI read abundance (log10)” value is 1.66. The same measure for “TTAGTCTCATGGACCGGTTTTCCCGGTAATCCGTATTTGAC (site CTAGTATCTGT)”: 0; for “TTAGTCTCATGGACCGGTTTTCCCGGTAATCCGTATTTGAC (site TTAGTCTCTGT)”: 3.02. Consider “TTATCTGCATGGACCGGTTTTCCCGGTAATCCGTATTTGTG (site TTAACTGCTCA)”, for which the “recombinant UMI read abundance (log10)” value is 0.00525.

With “TTATCTGCATGGACCGGTTTTCCCGGTAATCCGTATTTGTG (site TTACCTGCTCA)”, the “recombinant UMI read abundance (log10)” value is 0.0587.

Turning to “TTATCTGCATGGACCGGTTTTCCCGGTAATCCGTATTTGTG (site TTAGCTGCTCA)”, the “recombinant UMI read abundance (log10)” value came to 0.00464.

In the case of “TTATCTGCATGGACCGGTTTTCCCGGTAATCCGTATTTGTG (site TTATCTGCTCA)”, the “recombinant UMI read abundance (log10)” value stood at 1.73. On to “TTATGGTCATGGACCGGTTTTCCCGGTAATCCGTATTTGGC (site TTATGGTCTGC)”, for which the “recombinant UMI read abundance (log10)” value amounted to 1.88.

Regarding “TTATGTACATGGACCGGTTTTCCCGGTAATCCGTATTTGGG (site TTATGTACTCC)”, the “recombinant UMI read abundance (log10)” value was found to be 0.0157. As for “TTATTGTCATGGACCGGTTTTCCCGGTAATCCGTATTTGCA (site TTATTGTCTTG)”, the figure is 2.35; as for “TTCAAGTCATGGACCGGTTTTCCCGGTAATCCGTATTTGTA (site TTCAAGTCTTA)”, 0.621; as for “TTCACGGCATGGACCGGTTTTCCCGGTAATCCGTATTTGTC (site TTCACGGCTGA)”, 0.624. As for “TTCAGTCCATGGACCGGTTTTCCCGGTAATCCGTATTTGAT (site TTCAGTCCTAT)”, the figure is 0. Regarding “TTCATTACATGGACCGGTTTTCCCGGTAATCCGTATTTGAT (site TTCATTACTAT)”, the “recombinant UMI read abundance (log10)” value was determined as 0.

With “TTCCAAGCATGGACCGGTTTTCCCGGTAATCCGTATTTGAG (site ATCCAAGCTCT)”, the “recombinant UMI read abundance (log10)” value came to 0. With “TTCCAAGCATGGACCGGTTTTCCCGGTAATCCGTATTTGAG (site CTCCAAGCTCT)”, the “recombinant UMI read abundance (log10)” value was found to be 0.00912. Consider “TTCCAAGCATGGACCGGTTTTCCCGGTAATCCGTATTTGAG (site GTCCAAGCTCT)”, for which the “recombinant UMI read abundance (log10)” value was 0.0126. On to “TTCCAAGCATGGACCGGTTTTCCCGGTAATCCGTATTTGAG (site TTCCAAGCTCT)”, for which the “recombinant UMI read abundance (log10)” value was determined as 0.0285.

For the sequence “TTCCAGCCATGGACCGGTTTTCCCGGTAATCCGTATTTGTG (site TTCCAGCCTCA)”, the “recombinant UMI read abundance (log10)” value worked out at 0.0201.

With “TTCCCTACATGGACCGGTTTTCCCGGTAATCCGTATTTGAG (site ATCCCTACTCT)”, the “recombinant UMI read abundance (log10)” value stood at 0. As to “TTCCCTACATGGACCGGTTTTCCCGGTAATCCGTATTTGAG (site CTCCCTACTCT)”, the “recombinant UMI read abundance (log10)” value is 0.0509. As for “TTCCCTACATGGACCGGTTTTCCCGGTAATCCGTATTTGAG (site GTCCCTACTCT)”, the figure is 0.0155.

In the case of “TTCCCTACATGGACCGGTTTTCCCGGTAATCCGTATTTGAG (site TTCCCTACTCT)”, the “recombinant UMI read abundance (log10)” value amounted to 0.00443. The same measure for “TTCGACCCATGGACCGGTTTTCCCGGTAATCCGTATTTGAG (site TTCGACCCTCT)”: 0.00989; for “TTCGAGACATGGACCGGTTTTCCCGGTAATCCGTATTTGAC (site TTCGAGACTGT)”: 1.53; for “TTCGAGGCATGGACCGGTTTTCCCGGTAATCCGTATTTGAT (site TTCGAGGCTAT)”: 0.482. For the sequence “TTCGCACCATGGACCGGTTTTCCCGGTAATCCGTATTTGGT (site TTCGCACCTAC)”, the “recombinant UMI read abundance (log10)” value was 0.00499. In the case of “TTCGCTGCATGGACCGGTTTTCCCGGTAATCCGTATTTGTA (site TTCGCTGCTTA)”, the “recombinant UMI read abundance (log10)” value amounted to 0.369. On to “TTCTACGCATGGACCGGTTTTCCCGGTAATCCGTATTTGTT (site TTCTACGCTAA)”, for which the “recombinant UMI read abundance (log10)” value was 0.603. Take “TTCTAGGCATGGACCGGTTTTCCCGGTAATCCGTATTTGCG (site TTCTAGGCTCG)”: the “recombinant UMI read abundance (log10)” value was found to be 0.0116. As for “TTCTTCACATGGACCGGTTTTCCCGGTAATCCGTATTTGTC (site TTCTTCACTGA)”, the “recombinant UMI read abundance (log10)” value is 0. On to “TTGAACGCATGGACCGGTTTTCCCGGTAATCCGTATTTGAC (site TTGAACGCTGT)”, for which the “recombinant UMI read abundance (log10)” value was 0.899. As for “TTGACTACATGGACCGGTTTTCCCGGTAATCCGTATTTGCT (site TTGACTACTAG)”, the “recombinant UMI read abundance (log10)” value was determined as 1.09. Consider “TTGATTACATGGACCGGTTTTCCCGGTAATCCGTATTTGGC (site TTGATTACTGC)”, for which the “recombinant UMI read abundance (log10)” value came out at 0.

For “TTGATTCCATGGACCGGTTTTCCCGGTAATCCGTATTTGAC (site TTGATTCCTGT)”, the “recombinant UMI read abundance (log10)” value is 0.35. Consider “TTGCAAGCATGGACCGGTTTTCCCGGTAATCCGTATTTGCT (site TTGCAAGCTAG)”, for which the “recombinant UMI read abundance (log10)” value amounted to 0. In the case of “TTGCTACCATGGACCGGTTTTCCCGGTAATCCGTATTTGCT (site ATGCTACCTAG)”, the “recombinant UMI read abundance (log10)” value was 0. As to “TTGCTACCATGGACCGGTTTTCCCGGTAATCCGTATTTGCT (site CTGCTACCTAG)”, the “recombinant UMI read abundance (log10)” value was determined as 0.00337. With “TTGCTACCATGGACCGGTTTTCCCGGTAATCCGTATTTGCT (site GTGCTACCTAG)”, the “recombinant UMI read abundance (log10)” value worked out at 0.

As for “TTGCTACCATGGACCGGTTTTCCCGGTAATCCGTATTTGCT (site TTGCTACCTAG)”, the “recombinant UMI read abundance (log10)” value is 0.

As for “TTGGCAACATGGACCGGTTTTCCCGGTAATCCGTATTTGAT (site TTGGCAACTAT)”, the “recombinant UMI read abundance (log10)” value stood at 0.238.

With “TTGGCGCCATGGACCGGTTTTCCCGGTAATCCGTATTTGAG (site TTGGCGCCTCT)”, the “recombinant UMI read abundance (log10)” value worked out at 0.00946.

Take “TTGGTAACATGGACCGGTTTTCCCGGTAATCCGTATTTGAC (site TTGGTAACTGT)”: the “recombinant UMI read abundance (log10)” value is 2.33. For “TTGGTATCATGGACCGGTTTTCCCGGTAATCCGTATTTGTG (site TTGGTATCTCA)”, the “recombinant UMI read abundance (log10)” value was 1.82. On to “TTGGTGGCATGGACCGGTTTTCCCGGTAATCCGTATTTGTC (site TTGGTGGCTGA)”, for which the “recombinant UMI read abundance (log10)” value turned out to be 1.5. Consider “TTGTACGCATGGACCGGTTTTCCCGGTAATCCGTATTTGCA (site TTGTACGCTTG)”, for which the “recombinant UMI read abundance (log10)” value was 1.8.

For the sequence “TTGTAGGCATGGACCGGTTTTCCCGGTAATCCGTATTTGGC (site ATGTAGGCTGC)”, the “recombinant UMI read abundance (log10)” value was 0. The same measure for “TTGTAGGCATGGACCGGTTTTCCCGGTAATCCGTATTTGGC (site CTGTAGGCTGC)”: 1.59; for “TTGTAGGCATGGACCGGTTTTCCCGGTAATCCGTATTTGGC (site GTGTAGGCTGC)”: 0; for “TTGTAGGCATGGACCGGTTTTCCCGGTAATCCGTATTTGGC (site TTGTAGGCTGC)”: 1.76.

(Values after the supplement of paper PMC11208160.)
